Measured values as given in US11566222B2, “γδ T cell expansion procedure” (KING'S COLLEGE LONDON, priority 2014, dated 2023).

Columns and labels:
Vγ9Vδ2 T-cells = test: Ex-vivo expansion of Vγ9Vδ2 T-cells from PBMC; format: cell-based, human
Procedure: To enrich these cells, peripheral blood mononuclear cells (PBMC) were activated with ZA and cultured in AB serum-containing RPMI 1640 medium, supplemented with IL-2/IL-15. Specifically, PBMC isolated from normal (healthy) donors (n=21 separate donors) and from patients with EOC (n=13 separate donors) were cultured with ZA (1 μg/ml day 1 only), IL-2 (100 U/ml) and IL-15 (10 ng/ml). Cytokines and medium were added daily.
Isolated PBMC cells were then reconstituted in GMP TexMACS Media (Miltenyi) at 3×10^6 cell/mL. To the reconstituted cells, 1 μg/mL Zoledronic Acid (Zometa, Novartis) was added as an activator, together with 100 U/mL IL-2 and 5 ng/mL TGF-β. The cells were incubated at 37° C. in air containing 5% carbon dioxide.
On day 3, cells were fed with 100 U/mL IL-2 and 5 ng/mL TGF-β. Thereafter, on days 4, 7, 9, 11, 13, 15, cells were counted by trypan exclusion using a hemocytometer. If the number of T-cells was less than 1×10^6 cells/mL, a further 100 U/mL IL-2 and 5 ng/mL TGF-β were added. If the number of T-cells was between 1×10^6 and 2×10^6 cells/mL, an equivalent volume of TexMACS medium was added together with 100 U/mL IL-2 and 5 ng/mL TGF-β. If the number of T-cells was greater than 2×10^6 […], double the volume of TexMACS media was added together with 100 U/mL IL-2 and 5 ng/mL TGF-β.
After 15 days, the cells were analyzed by flow cytometry with a pan γδ antibody to confirm the enrichment of γδ T-cells in these cultures.
The methodology of Example 1 above was repeated using a different basic medium, specifically RPMI+human AB serum. In particular, PBMC (3×10^6 cells/ml) were cultured in RPMI+10% human AB serum containing zoledronic acid (1 μg/ml)+IL-2 (100 U/ml; method 1) or zoledronic acid (1 μg/ml)+IL-2 (100 U/ml)+TGF-β (5 ng/ml; method 2). The percentage of γδ T-cells present in each culture was evaluated on the day of initiation of the cultures (day 1) and after a further 14 days (day 15) and the results are shown in FIG. 9B.

[1] = test system: U937 tumor cells or KG-1 tumor cells; test: Cytotoxicity assay (luciferase) with cytarabine-pulsed tumor cells, 1:1 effector:target; format: cell-based; conditions: sub-lethal doses, 24 h pulse before T-cells
Procedure: Cytotoxicity assays were established in triplicate at a 1:1 effector:target ratio in 96 well plates containing either U937 tumor cells or KG-1 tumor cells. Where indicated, tumor cells were pulsed for 24 h with the indicated concentrations of cytarabine, prior to addition of γδ T-cells, produced either using the method of the invention (M2) or the method of the comparative example (M1) above. There were three donors for the M2 cells and two donors for the M1 cells. A control group received no cytarabine.
Residual tumor cell viability was measured after overnight co-culture with Vγ9Vδ2 T-cells by luciferase assay.

## IL-15: cytokine supplement (10 ng/ml) in comparative expansion
Vγ9Vδ2 T-cells; RPMI 1640 with AB serum, ZA + IL-2, IL-15 10 ng/ml
  yield of cells on addition of IL-15: no significant difference

## TGF-β
Vγ9Vδ2 T-cells; RPMI + 10% human AB serum, ZA + IL-2, 5 ng/ml TGF-β, day 15
  cell expansion on addition of TGF-β: enhanced cell expansion
Vγ9Vδ2 T-cells; TexMACS medium, ZA + IL-2, 5 ng/mL TGF-β, 15 days
  yield of Vγ9Vδ2 T-cells on addition of TGF-β: substantially enhanced yields

## Nc1ccn([C@@H]2O[C@H](CO)[C@@H](O)[C@@H]2O)c(=O)n1 [cytarabine]
[1]
  effect of cytarabine on anti-tumor activity of method 2 Vγ9Vδ2 T-cells: potentiated the anti-tumor activity
